Experiments:
Experiment in all cases: relative viability (nuclei count vs DMSO), 5 days (fraction); higher = more cells survive
[1] = compound: C1/C(=C\C2=CC=CS2)/C(=O)/C(=C/C3=CC=CS3)/C1 + C[C@]1(O)C[C@@H](c2nc(-c3ccc4ccc(-c5ccccc5)nc4c3)c3c(N)nccn32)C1 [Linsitinib] (partner 1 µM)
In short: (§1)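 Nuclei were stained with Hoechst during a one-step fixation (final 0.05% Triton X-100, 1% formaldehyde, 1 ug/ml Hoechst) carried out 5 days after dosing, then counted on 4× images. The cells, lung cancer lines in 1536-well plates, had been dosed by pin tool the day after seeding with one drug alone or a fixed anchor-drug dose plus five library-drug doses (not always all listed) in √10 steps. Relative viability is the nuclei count in treated wells divided by that in vehicle wells, and each value is the median of duplicate plates.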

[2] = compound: C1=CC(=CC=C1C2=CC(=C(S2)NC(=O)N)C(=O)N)F [TPCA-1] + CC1(C)CCC(c2ccc(Cl)cc2)=C(CN2CCN(c3ccc(C(=O)NS(=O)(=O)c4ccc(N[C@H](CCN5CCOCC5)CSc5ccccc5)c(S(=O)(=O)C(F)(F)F)c4)cc3)CC2)C1 [Navitoclax] (partner 0.5 µM)
In short: as §1

[3] = compound: C[C@]12O[C@H](C[C@]1(O)CO)n1c3ccccc3c3c4c(c5c6ccccc6n2c5c31)CNC4=O [Lestaurtinib] + COc1cc2c(Oc3ccc(NC(=O)C4(C(=O)Nc5ccc(F)cc5)CC4)cc3F)ccnc2cc1OCCCN1CCOCC1 [Foretinib] (partner 0.25 µM)
In short: as §1

[4] = compound: C[C@]12O[C@H](C[C@]1(O)CO)n1c3ccccc3c3c4c(c5c6ccccc6n2c5c31)CNC4=O [Lestaurtinib] + Cc1nc(NC(=O)N2CCC[C@H]2C(N)=O)sc1-c1ccnc(C(C)(C)C(F)(F)F)c1 [Alpelisib] (partner 2 µM)
In short: as §1

Cell Line | relative viability ([1]; first compound 0.2 µM) | relative viability ([1]; first compound 0.6325 µM) | relative viability ([1]; first compound 2 µM) | relative viability ([1]; first compound 6.325 µM) | relative viability ([1]; first compound 20 µM) | relative viability ([2]; first compound 0.04 µM) | relative viability ([2]; first compound 0.1265 µM) | relative viability ([2]; first compound 0.4 µM) | relative viability ([2]; first compound 1.265 µM) | relative viability ([2]; first compound 4 µM) | relative viability ([3]; first compound 0.005 µM) | relative viability ([3]; first compound 0.01581 µM) | relative viability ([3]; first compound 0.05 µM) | relative viability ([3]; first compound 0.1581 µM) | relative viability ([3]; first compound 0.5 µM) | relative viability ([4]; first compound 0.005 µM) | relative viability ([4]; first compound 0.01581 µM) | relative viability ([4]; first compound 0.05 µM) | relative viability ([4]; first compound 0.1581 µM) | relative viability ([4]; first compound 0.5 µM)
NCI-H2009 | 1.28 | 1.2 | 1.15 | 0.712 | 1.13 | 1.2 | 1.18 | 1.08 | 1.19 | 1.12 | 1.24 | 1.3 | 1.17 | 1.09 | 0.751 | 1.27 | 1.12 | 0.971 | 1.05 | 0.673
NCI-H1395 | 1.12 | 1.06 | 1.29 | 0.89 | 1.05 | 1.2 | 0.932 | 1.25 | 1.05 | 0.99 | 1.01 | 0.911 | 0.861 | 0.824 | 0.479 | 1.15 | 1.14 | 0.795 | 0.813 | 0.483
NCI-H2228 | 0.764 | 0.628 | 1.16 | 0.563 | 0.631 | 0.758 | 0.68 | 1.18 | 0.656 | 0.595 | 0.885 | 0.896 | 0.523 | 0.379 | 0.254 | 0.806 | 0.648 | 0.582 | 0.32 | 0.205
LU99A | 0.535 | 0.497 | 0.574 | 0.353 | 0.61 | 0.976 | 0.77 | 0.802 | 0.766 | 0.473 | 0.733 | 0.73 | 0.575 | 0.469 | 0.247 | 0.413 | 0.488 | 0.233 | 0.283 | 0.192
NCI-H1437 | 1.1 | 1.04 | 0.993 | 0.984 | 0.986 | 1.11 | 1.05 | 1.13 | 1.07 | 1.08 | 1.35 | 1.4 | 1.29 | 1.17 | 1.07 | 0.958 | 1.11 | 1.01 | 0.757 | 0.461
EKVX | 1.1 | 1.05 | 0.974 | 0.776 | 1 | 0.956 | 0.818 | 0.913 | 0.793 | 0.836 | 0.681 | 0.752 | 0.75 | 0.925 | 0.656 | 0.892 | 1.03 | 0.938 | 0.743 | 0.519
IA-LM | 0.623 | 0.895 | 0.623 | 0.616 | 0.523 | 0.855 | 0.595 | 0.72 | 0.617 | 0.678 | 1.37 | 1.4 | 1.53 | 1.22 | 0.59 | 0.967 | 0.964 | 1.13 | 1.05 | 0.28
NCI-H520 | 0.953 | 1.09 | 0.941 | 1.02 | 0.795 | 1.17 | 0.96 | 1.1 | 0.977 | 1.08 | 0.713 | 0.992 | 0.698 | 0.342 | 0.228 | 1.05 | 0.993 | 0.764 | 0.481 | 0.274
NCI-H1703 | 1.42 | 0.978 | 0.633 | 0.887 | 0.725 | 1.18 | 0.955 | 1.12 | 0.774 | 0.807 | 0.322 | 0.305 | 0.27 | 0.315 | 0.252 | 0.293 | 0.288 | 0.283 | 0.2 | 0.117
LCLC-97TM1 | 0.183 | 0.169 | 0.187 | 0.158 | 0.197 | 0.394 | 0.494 | 0.446 | 0.259 | 0.238 | 0.925 | 1.08 | 0.556 | 0.462 | 0.238 | 0.256 | 0.189 | 0.171 | 0.138 | 0.148
NCI-H1793 | 0.815 | 0.855 | 0.913 | 0.855 | 0.685 | 0.425 | 0.354 | 0.413 | 0.342 | 0.319 | 0.684 | 0.702 | 0.436 | 0.574 | 0.39 | 0.874 | 0.761 | 0.588 | 0.546 | 0.494
NCI-H3122 | 1.01 | 1.06 | 1.09 | 0.919 | 0.97 | 0.995 | 1.01 | 1.04 | 1.02 | 1.01 | 1.06 | 0.984 | 1.01 | 1.03 | 0.793 | 0.92 | 0.983 | 0.932 | 0.841 | 0.48
PC-14 | 0.96 | 0.919 | 0.922 | 0.829 | 0.981 | 1.03 | 0.876 | 1.01 | 1.09 | 0.913 | 0.963 | 1.09 | 0.619 | 0.517 | 0.687 | 0.973 | 1.01 | 0.465 | 0.602 | 0.471
EPLC-272H | 1.29 | 1.07 | 1.22 | 1.19 | 1.03 | 1.28 | 0.969 | 0.934 | 1.01 | 0.821 | 0.542 | 0.538 | 0.282 | 0.325 | 0.126 | 0.896 | 0.917 | 0.575 | 0.522 | 0.556
A-427 | 1.14 | 1.12 | 1.11 | 1.06 | 1.15 | 0.945 | 0.898 | 0.997 | 0.899 | 0.93 | 1.03 | 1.04 | 0.668 | 0.4 | 0.154 | 1.14 | 1.16 | 0.952 | 0.571 | 0.4

Reference: the supplement of paper PMC10307832
